Results published in US6849663B2, “2-Aminotetralines, a process for their preparation, and pharmaceutical compositions, for the prevention and therapeutic treatment of inflammatory and/or autoimmune pathologies” (Sigma-Tau Industrie Farmaceutiche Riunite S.p.A., priority 1997, dated 2005).
Where “and” joins values, the source holds several entries; their conditions need not be identical. Equal entries are not always repeated. Structures can show the parent of a compound that is named as a salt. Where two headings read alike, the source gives them in different places.

What was measured:
[1] = tested on: S. typhosa LPS; set-up: species or system mice; settings: mouse, in vivo; for Survival increase (%): iv
[2] = tested on: E. coli LPS; set-up: species or system mice; settings: mouse, in vivo
[3] = tested on: TNF; test: Serum TNF after Salmonella typhosa LPS in mice; type: in vivo; settings: 6 mg/kg i.v., −30/+5 min schedule, LPS control 154.2
Description: Animals were treated intraperitoneally (i.p.) with S. typhosa LPS. Prior to use, the endotoxin was first dissolved in sterile saline and then injected in a volume of 200 μL, at the dose of 27.0 mg/kg, corresponding to about the LD80.
The compounds tested were administered intravenously (i.v.) in a volume of 200 μL of sterile saline at the dose approximately corresponding to 1/10 LD50, 30 min before and again 5 min after the endotoxic challenge (LPS).
In both experimental models, blood samples were taken 90 min after the challenge (peak serum TNF level).
Ether-anaesthetised mice were bled by retro-orbital sinus puncture.
Blood samples were incubated at room temperature for 2 h and the serum thus obtained was centrifuged for 20 min at 3000 rpm and stored at −80° C. pending TNF assay.
TNF biological activity was determined in RPMI medium containing 1% FCS.
50 μL/well of serial dilutions of samples containing TNF were added directly to the Primaria microtiter plates.
The experimental conditions utilised were the same as those previously described.
Data were analysed statistically using the one-tailed Student's t test.

[4] = tested on: SEB (Staphylococcus aureus) enterotoxin; set-up: species or system mice; settings: mouse, in vivo
[5] = tested on: TNF; set-up: species or system mice; settings: mouse, in vivo
[6] = tested on: TNF; test: TNF production induced by LPS in rat blood culture; type: cell-based
[7] = tested on: IL-6; set-up: species or system mice; settings: mouse, in vivo
[8] = tested on: IFN-γ; set-up: species or system mice; settings: mouse, in vivo
[9] = tested on: TNF; set-up: species or system mice; settings: mouse, in vivo; remark: listed apart in the source
[10] = tested on: IL-1β; set-up: species or system mice; settings: mouse, in vivo

COc1cc2c(cc1F)CC[C@@H](N)C2 (racemic) [ST 626, (R,S)-2-amino-6-fluoro-7-methoxytetraline hydrochloride, reference compound]
Dead/Total [1]: 6/20
Survival increase (%) [1]: +40%
Dead/Total [2]: 21/28
Survival increase (%) ([2]; iv): +11%
TNF (U/mL) Mean [3]: 35.0 U/mL

CC(=O)c1cc2c(cc1C)CC[C@@H](N)C2.Cl (racemic) [ST 1274, (R,S)-7-acetyl-2-amino-6-methyltetraline hydrochloride]
Dead/Total [1]: 10/20
effect on lethality (in words) [1]: significantly reduce the lethality
Survival increase (%) [1]: +40%
Dead/Total [4]: 0/10
Survival increase (%) ([4]; iv): +90%
Dead/Total [2]: 5/10

Cc1cc2c(cc1F)CC[C@@H](N)C2.Cl (racemic) [ST 1275, (R,S)-2-amino-6-fluoro-7-methyltetraline hydrochloride]
Dead/Total [1]: 6/10
effect on lethality (in words) [1]: significantly reduce the lethality
Survival increase (%) [1]: +40%
Dead/Total [4]: 1/10
Survival increase (%) ([4]; iv): +80%
Dead/Total [2]: 5/10

Cl.N[C@@H]1CCc2cc(F)c(O)cc2C1 [ST 1238, R(+)-2-amino-6-fluoro-7-hydroxytetraline hydrochloride]
Survival increase (%) [4]: +70%
protective effect (in words) [4]: extremely significant protective effect
Survival increase (%) ([4]; iv): +70%
Dead/Total ([4]; hydrochloride): 1/20 and 4/20
effect on TNF levels (in words) [5]: significantly reduces TNF levels
TNF (mean % values) [6]: 61%
reduction of TNF production ([6]; rat blood cultures stimulated with LPS, compound 50 μM): 39%
IL-6 (pg/mL) Mean [7]: 599 pg/mL
effect on IL-6 production (in words) [7]: significantly reduces the production
IFN-γ (pg/mL) Mean [8]: 25 pg/mL
effect on IFN-γ production (in words) [8]: significantly reduces the production
Survival increase (%) [2]: +44%
effect on lethality (in words) [2]: significantly reduces the lethality
Survival increase (%) ([2]; iv): +60%
Dead/Total ([2]; hydrochloride): 5/20 and 7/19
TNF (U/mL) Mean [9]: 6.2 U/mL
TNF (U/mL) mean [9]: 27.0 U/mL
effect on TNF production (in words) [9]: significantly reduces TNF production
IL-1β (pg/mL) Mean [10]: 0.9 pg/mL
